Measurements from ChEMBL document CHEMBL4382216, “Asymmetric synthesis and biological evaluation of imidazole- and oxazole-containing synthetic lipoxin A4 mimetics (sLXms)” (Eur J Med Chem, 2019).
Activity calls are given as the source filed them. The rule behind the calls is not given here.

What was measured:
Homo sapiens [1] = species: Homo sapiens; experiment: Activation of Luc-fused NFkB (unknown origin) expressed in non-stimulated human THP1 cells assessed as relative luminescence unit at 10^-12 M after 24 hrs by luciferase reporter gene assay (reference value: 100%); format: cell-based
Homo sapiens [2] = species: Homo sapiens; experiment: Activation of Luc-fused NFkB (unknown origin) expressed in non-stimulated human THP1 cells assessed as relative luminescence unit at 10^-11 M after 24 hrs by luciferase reporter gene assay (reference value: 100%); format: cell-based
Homo sapiens [3] = species: Homo sapiens; experiment: Activation of Luc-fused NFkB (unknown origin) expressed in non-stimulated human THP1 cells assessed as relative luminescence unit at 10^-10 M after 24 hrs by luciferase reporter gene assay (reference value: 100%); format: cell-based
Homo sapiens [4] = species: Homo sapiens; experiment: Activation of Luc-fused NFkB (unknown origin) expressed in non-stimulated human THP1 cells assessed as relative luminescence unit at 10^-9 M after 24 hrs by luciferase reporter gene assay (reference value: 100%); format: cell-based
Homo sapiens [5] = species: Homo sapiens; experiment: Activation of Luc-fused NFkB (unknown origin) expressed in non-stimulated human THP1 cells assessed as relative luminescence unit at 10^-7 M after 24 hrs by luciferase reporter gene assay (reference value: 100%); format: cell-based
Homo sapiens [6] = species: Homo sapiens; experiment: Activation of Luc-fused NFkB (unknown origin) expressed in non-stimulated human THP1 cells assessed as relative luminescence unit at 10^-6 M after 24 hrs by luciferase reporter gene assay (reference value: 100%); format: cell-based
[7] = target: T1, N-formyl peptide receptor 2 (Homo sapiens, UniProt P25090); experiment: Agonist activity at ALX/FPR2 in human THP1 cells harboring NF-kB-Luc assessed as inhibition of LPS-induced NFkB signalling activation pretreated for 30 mins followed by LPS stimulation for 24 hrs by luciferase reporter gene assay; format: cell-based
T1 sequence (P25090 whole entry): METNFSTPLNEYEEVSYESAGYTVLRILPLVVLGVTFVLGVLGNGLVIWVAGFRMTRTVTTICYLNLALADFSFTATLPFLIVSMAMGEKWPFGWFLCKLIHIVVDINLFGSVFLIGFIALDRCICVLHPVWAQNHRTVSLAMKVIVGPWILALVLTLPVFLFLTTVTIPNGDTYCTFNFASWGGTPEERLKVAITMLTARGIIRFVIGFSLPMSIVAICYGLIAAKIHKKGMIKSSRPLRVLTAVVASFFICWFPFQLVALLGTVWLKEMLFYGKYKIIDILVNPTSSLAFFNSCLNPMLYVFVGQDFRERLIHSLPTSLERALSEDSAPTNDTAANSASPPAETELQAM

[8] = target: T1, N-formyl peptide receptor 2; experiment: Agonist activity at ALX/FPR2 in human THP1 cells harboring NF-kB-Luc assessed as inhibition of LPS-induced NFkB signalling activation by measuring reduction in IFNgamma secretion pretreated for 30 mins followed by LPS stimulation for 24 hrs by electrochemiluminescence assay; format: cell-based
[9] = target: T1, N-formyl peptide receptor 2; experiment: Agonist activity at ALX/FPR2 in human THP1 cells harboring NF-kB-Luc assessed as inhibition of LPS-induced NFkB signalling activation by measuring reduction in IL-12p70 secretion pretreated for 30 mins followed by LPS stimulation for 24 hrs by electrochemiluminescence assay; format: cell-based; settings: read-out: IC50
[10] = target: T1, N-formyl peptide receptor 2; experiment: Agonist activity at ALX/FPR2 in human THP1 cells harboring NF-kB-Luc assessed as inhibition of LPS-induced NFkB signalling activation by measuring reduction in TNFalpha secretion pretreated for 30 mins followed by LPS stimulation for 24 hrs by electrochemiluminescence assay; format: cell-based
[11] = target: T1, N-formyl peptide receptor 2; experiment: Agonist activity at ALX/FPR2 in human THP1 cells harboring NF-kB-Luc assessed as inhibition of LPS-induced NFkB signalling activation by measuring reduction in IL-1beta secretion pretreated for 30 mins followed by LPS stimulation for 24 hrs by electrochemiluminescence assay; format: cell-based
[12] = target: T1, N-formyl peptide receptor 2; experiment: Agonist activity at ALX/FPR2 in human THP1 cells harboring NF-kB-Luc assessed as inhibition of LPS-induced NFkB signalling activation by measuring reduction in IL-6 secretion pretreated for 30 mins followed by LPS stimulation for 24 hrs by electrochemiluminescence assay; format: cell-based
Homo sapiens [13] = species: Homo sapiens; experiment: Activation of Luc-fused NFkB (unknown origin) expressed in non-stimulated human THP1 cells assessed as relative luminescence unit at 10^-8 M after 24 hrs by luciferase reporter gene assay (reference value: 100%); format: cell-based
[14] = target: T2, N-formyl peptide receptor 2 (Homo sapiens) (UniProt P25090); experiment: Agonist activity at ALX/FPR2 (unknown origin) expressed in HEK293 cells co-expressing Galphaq assessed as induction of intracellular calcium accumulation at 1 uM by Fluo-4 dye based fluorescence spectrophotometric assay; format: functional, cell-based
T2 sequence (whole entry): T1 sequence (P25090 whole entry)

HEK293 = experiment: Induction of intracellular calcium accumulation in HEK293 cells at 1 uM by Fluo-4 dye based fluorescence spectrophotometric assay; format: functional, cell-based; settings: Homo sapiens

| SMILES | Activity (Homo sapiens [1]) [%] | Activity (Homo sapiens [2]) [%] | Activity (Homo sapiens [3]) [%] | Activity (Homo sapiens [4]) [%] | Activity (Homo sapiens [5]) [%] | Activity (Homo sapiens [6]) [%] | IC50 [7] [nM] | IC50 ([8]; read-out: IC50) [nM] | IC50 [9] [nM] | IC50 ([10]; read-out: IC50) [nM] | IC50 ([11]; read-out: IC50) [nM] | IC50 ([12]; read-out: IC50) [nM] | Activity (Homo sapiens [13]) [%] | IC50 [10] | IC50 [12] | IC50 [8] | IC50 [11] | Activity [14] | Activity (HEK293) |
| --- | --- | --- | --- | --- | --- | --- | --- | --- | --- | --- | --- | --- | --- | --- | --- | --- | --- | --- | --- |
| CCC[C@@H](O)c1c(/C=C/[C@@H](O)[C@@H](O)CCCC(=O)OC)nc(C)n1C | 1.8 | 1.6 | 1.8 | 2.2 | 1.4 | 0.9 | 40.3 | 4.3 | 3.4 | 4.8 | 3.7 | 55.8 | – | – | – | – | – | – | – |
| CCCCC[C@H](O)c1c(/C=C/[C@@H](O)[C@@H](O)CCCC(=O)OC)nc(C)n1C | 5.2 | 4.4 | 8.9 | 4.6 | 3.7 | 5.5 | 25.3 | 2.2 | 0.1 | 3.4 | 2.6 | 60.6 | – | – | – | – | – | – | – |
| CCC[C@H](O)c1c(/C=C/[C@@H](O)[C@@H](O)CCCC(=O)OC)nc(C)n1C | 1.4 | 1.9 | 3.2 | 1.7 | 1.4 | 1.3 | 31.5 | 0.9 | 6 | – | 3.6 | – | 1.6 | Not Active | Not Active | – | – | – | – |
| COC(=O)CCC[C@H](O)[C@H](O)/C=C/c1nc(C)n(C)c1[C@@H](C)O | 9.7 | 8.8 | 9.3 | 8.8 | 9.4 | 9.6 | 27.8 | – | 3.8 | – | – | – | 10.4 | Not Active | Not Active | Not Active | Not Active | – | – |
| Nc1ncnc2c1ncn2[C@@H]1O[C@H](COP(=O)(O)OP(=O)(O)OP(=O)(O)O)[C@@H](O)[C@H]1O | – | – | – | – | – | – | – | – | – | – | – | – | – | – | – | – | – | Active | Active |
